This is an account of results in US20240252486A1, “ALGOSTATIC AGENTS FOR PREVENTING TRANSITION FROM ACUTE TO CHRONIC PAIN” (The Regents of the University of California, priority 2021, published 2024).

Common to all, as to assay type: in vivo, mouse
In data set [1] the test system is formalin-injected mice. The data set can be described thus: Formalin-induced paw edema. On the procedure: Paw edema was measured with a digital caliper (Fisher Scientific, USA) and is expressed as the difference (A paw thickness, mm) between ipsilateral and contralateral paws.
In data set [2] the test system is formalin-injected mice. The data set can be described thus: Conditioned place preference (spontaneous/ongoing pain) after formalin. Conditions: ARN19702 30 mg-kg^−1 IP once daily for 3 days starting 24 h after formalin; PFD14. On the procedure:
Preconditioning: 12 days after tissue damage, mice were placed in the two chamber CPP apparatus (for details see (63)) and the time spent in each chamber was recorded for 10 min and analyzed to determine preconditioning baseline.
Conditioning: Mice underwent single trial conditioning 24 h after preconditioning using a biased approach. In the morning of the conditioning day, animals received saline and were immediately placed into the preferred chamber (saline paired) of the CPP box for 30 min, with no access to the other chambers. Approximately 4 h later, mice received gabapentin (50 mg-kg^−1, IP) and were immediately confined in the non-preferred chamber for 30 min (gabapentin paired).
Preference test: On the test day (POD14 or PFD14), 12 h after the afternoon pairing, mice were placed back into the center of the CPP chambers with free access to all chambers for 10 min. Time (s) spent in each chamber was recorded and evaluated by a blind observer to determine preference.

The nature of data set [3]: Body-weight gain after formalin. The note with it: ARN19702 30 mg-kg^−1 IP once daily for 3 days starting 24 h after formalin; PFD14.
Data set [4] relates to formalin-injected mice. The data set can be described thus: Ex vivo diffusion tensor imaging of spinal cord and forebrain. Conditions: ARN19702 30 mg-kg^−1 IP once daily for 3 days starting 24 h after formalin; PFD14. On the procedure:
Magnetic Resonance Imaging (MRI) acquisition: Mice were anesthetized, flushed intracardially with ice-cold PBS and then with 4% PAF in PBS (pH 7.4). Brains and spinal cords were removed within their osseous structures and post-fixed overnight in 4% PAF, followed by three 5-min washes with PBS the next day, and stored in PBS (pH 7.4) containing sodium azide (0.02%, weight) at 4 °C. Ex vivo diffusion tensor imaging (DTI) and T2 weighted imaging ([…]) studies were performed using a 9.4 T Bruker Avance imager (Bruker Biospin, Billerica, USA). Data were acquired with the following parameters: 1.5 cm field of view, 0.5 mm slice thickness, and a 128×128 acquisition matrix and zero filled to 256×256. DTI parameters were as follows: repetition time (TR)/echo time (TE)=8000 ms/35.66 ms, 30 isolinear directions, B=[…], and 5 B0 images acquired prior to weighted images. […] parameters were TR/TE=4000/10 ms with 10 equally spaced echoes. Brain: We used 3D automatic registration for unbiased region parcellation to analyze DTI metrics in brain structures. Scans underwent eddy current correction and brain was digitally removed from surrounding skull and muscles using 3D Pulse-Coupled Neural Networks (PCNN3D v1.2) in MATLAB R2017a (MathWorks). […] The resultant maps were then analyzed in DSI studio (http://dsi-studio.labsolver.org). […]

For another data set, the system named is naïve animals. As to the kind of experiment: Baseline nociceptive thresholds in naïve animals. The note with it: ARN19702 30 mg-kg^−1 IP, ARN16186 10 mg-kg^−1 IP.

As for `CCS(=O)(=O)c1ccccc1C(=O)N1CCN(c2nc3ccc(F)cc3s2)C[C@@H]1C` [ARN19702], in the data set on formalin-injected mice [1] (pretreatment, ARN16186 10 mg-kg^−1 IP, ARN19702 30 mg-kg^−1 IP, wild-type mice, 1% formalin), the “paw edema (PFD14)” value is “prevents”. For the same compound, in the data set with formalin-injected mice [1] (three-day ARN19702 regimen (30 mg-kg^−1 IP) after formalin, PFD14), the paw edema entry is on record as “no detectable influence”. In the data set on formalin-injected mice [2], the ongoing pain entry was “normalizing”. Further, the body-weight gain result in data set [3] is on record as “normalizing”. The “CPLS-associated changes in spinal and forebrain DTI measures” value with formalin-injected mice [4] was “reversing”. Also, in the data set with naïve animals, the baseline nociceptive thresholds entry is reported as “Neither compound affected”.
